≈ marks a conversion by molar mass, not a printed value. Calls of active or inactive are those of the source. The calls are words filed in the database; no cut-off is given here.
How the values were obtained:
[1] = Intrinsic clearance in human liver microsomes; format: ADME, Microsome; settings: read-out: CLH
[2] = Intrinsic clearance in rat liver microsomes; format: ADME, Microsome; settings: read-out: CLH
[3] = Intrinsic clearance in mouse liver microsomes; format: ADME, Microsome; settings: read-out: CLH
[4] = Lipophilicity, logP of the compound; settings: octanol/water
[5] = Protein binding in human plasma; format: ADME, cell-free; settings: read-out: PPB (converted)
[6] = Protein binding in rat plasma; format: ADME, cell-free; settings: read-out: PPB (converted)
[7] = Apparent permeability from apical to basolateral side in human Caco-2 cells
[8] = target: Cytochrome P450 3A4 (Homo sapiens, UniProt P08684); assay: Inhibition of CYP3A4 (unknown origin)
[9] = target: Cytochrome P450 2C9 (Homo sapiens, UniProt P11712); assay: Inhibition of CYP2C9 (unknown origin)
[10] = target: Cytochrome P450 2D6 (Homo sapiens, UniProt P10635); assay: Inhibition of CYP2D6 (unknown origin)
[11] = Thermodynamic solubility of the compound
[12] = Oral bioavailability in Balb/C mouse at 3 mg/kg; format: ADME, organism-based; settings: in vivo
[13] = Clearance in Sprague-Dawley rat at 1 mg/kg, iv; format: ADME, organism-based; settings: in vivo
[14] = Clearance in Balb/C mouse at 1 mg/kg, iv; format: ADME, organism-based; settings: in vivo
[15] = Terminal half life in Sprague-Dawley rat at 1 mg/kg, iv; format: ADME, organism-based; settings: in vivo, read-out: beta t1/2 (converted)
[16] = Terminal half life in Balb/C mouse at 1 mg/kg, iv; format: ADME, organism-based; settings: in vivo, read-out: beta t1/2 (converted)
[17] = Apparent volume of distribution at steady state in Sprague-Dawley rat at 1 mg/kg, iv; format: ADME, organism-based; settings: in vivo, read-out: Vdss(app)
[18] = Apparent volume of distribution at steady state in Balb/C mouse at 1 mg/kg, iv; format: ADME, organism-based; settings: in vivo, read-out: Vdss(app)
[19] = AUC (0 to 24 hrs) in Sprague-Dawley rat at 3 mg/kg, po; format: ADME, organism-based; parameters: time < 24 hr, route oral, dose 3 mg/kg; settings: in vivo
[20] = AUC (0 to 24 hrs) in Balb/C mouse at 3 mg/kg, po; format: ADME, organism-based; parameters: time < 24 hr, route oral, dose 3 mg/kg; settings: in vivo
[21] = Cmax in Sprague-Dawley rat at 3 mg/kg, po; format: ADME, organism-based; parameters: route oral, dose 3 mg/kg; settings: in vivo
[22] = Cmax in Balb/C mouse at 3 mg/kg, po; format: ADME, organism-based; parameters: route oral, dose 3 mg/kg; settings: in vivo
[23] = Oral bioavailability in Sprague-Dawley rat at 3 mg/kg; format: ADME, organism-based; settings: in vivo
[24] = system: OCI-Ly3; assay: Growth inhibition of human OCILY3 cells grown in soft agar at 19.5 to 10000 nM; format: functional, cell-based; settings: dose nM 19.5-10000
[25] = system: BJAB; assay: Growth inhibition of human BJAB cells grown in soft agar at 19.5 to 10000 nM; format: functional, cell-based; settings: dose nM 19.5-10000
[26] = system: OCI-Ly3; assay: Growth inhibition of human OCILY3 cells grown in soft agar
[27] = system: BJAB; assay: Growth inhibition of human BJAB cells grown in soft agar
[28] = system: OCI-Ly3; assay: Inhibition of ROS production in human OCILY3 cells
[29] = target: T1, Caspase-3 (Homo sapiens, UniProt P42574); assay: Inhibition of caspase-3 (unknown origin)
T1 sequence (P42574 whole entry): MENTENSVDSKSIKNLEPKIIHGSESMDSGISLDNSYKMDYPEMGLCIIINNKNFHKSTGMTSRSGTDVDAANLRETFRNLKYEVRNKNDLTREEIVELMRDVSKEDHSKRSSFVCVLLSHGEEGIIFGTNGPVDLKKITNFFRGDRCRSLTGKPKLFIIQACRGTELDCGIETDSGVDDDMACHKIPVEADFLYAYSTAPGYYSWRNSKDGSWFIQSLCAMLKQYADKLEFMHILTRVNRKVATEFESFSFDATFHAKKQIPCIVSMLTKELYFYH

[30] = target: Cathepsin B (Homo sapiens, UniProt P07858); assay: Inhibition of cathepsin B (unknown origin)
[31] = target: Dipeptidyl peptidase 1 (Homo sapiens, UniProt P53634); assay: Inhibition of cathepsin C (unknown origin)
[32] = target: T2, Cathepsin K (Homo sapiens, UniProt P43235); assay: Inhibition of cathepsin K (unknown origin)
T2 sequence (P43235 whole entry): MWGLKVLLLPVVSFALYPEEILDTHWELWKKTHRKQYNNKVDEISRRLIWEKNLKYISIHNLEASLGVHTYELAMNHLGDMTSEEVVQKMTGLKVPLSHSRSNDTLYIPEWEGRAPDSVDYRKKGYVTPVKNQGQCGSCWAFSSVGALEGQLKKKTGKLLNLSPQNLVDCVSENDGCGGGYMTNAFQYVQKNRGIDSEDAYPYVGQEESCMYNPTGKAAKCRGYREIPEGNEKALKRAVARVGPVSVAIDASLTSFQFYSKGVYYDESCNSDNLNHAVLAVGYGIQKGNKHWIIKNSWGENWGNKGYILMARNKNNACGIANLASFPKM

[33] = target: Procathepsin L (Homo sapiens, UniProt P07711); assay: Inhibition of cathepsin L (unknown origin)
[34] = target: Cathepsin S (Homo sapiens, UniProt P25774); assay: Inhibition of cathepsin S (unknown origin)
[35] = target: Voltage-gated inwardly rectifying potassium channel KCNH2 (Homo sapiens, UniProt Q12809); assay: Inhibition of human ERG by dofetilide binding assay
[36] = system: Rattus norvegicus; assay: Anti-autoimmune disease activity in OFA rat model of T-cell dependent B cell response assessed as reduction in SRBC-induced IgM producing B cells at 0.3 mg/kg, po QD for 4 days starting 2 days prior to immunization by ex vivo plaque forming assay relative to control; format: functional; settings: 96 h, read-out: INH, time 4 day
[37] = system: Rattus norvegicus; assay: Anti-autoimmune disease activity in OFA rat model of T-cell dependent B cell response assessed as reduction in SRBC-induced IgM producing B cells at 3 mg/kg, po QD for 4 days starting 2 days prior to immunization by ex vivo plaque forming assay relative to control; format: functional; settings: 96 h, read-out: INH, time 4 day
[38] = system: Rattus norvegicus; assay: Anti-autoimmune disease activity in OFA rat model of T-cell dependent B cell response assessed as reduction in SRBC-induced IgM producing B cells dosed orally once daily for 4 days starting 2 days prior to immunization by ex vivo plaque forming assay relative to control; format: functional
[39] = Cmax in blood of OFA rat model of T-cell dependent B cell response at 0.3 mg/kg, po QD for 4 days starting 2 days prior to immunization and measured after 3 hrs; format: ADME, organism-based; parameters: route oral, time 4 day, dose 0.3 mg/kg
[40] = Cmax in blood of OFA rat model of T-cell dependent B cell response at 0.3 mg/kg, po QD for 4 days starting 2 days prior to immunization and measured after 24 hrs; format: ADME, organism-based; parameters: route oral, dose 0.3 mg/kg, time 5 day
[41] = Cmax in blood of OFA rat model of T-cell dependent B cell response at 1 mg/kg, po QD for 4 days starting 2 days prior to immunization and measured after 3 hrs; format: ADME, organism-based; parameters: route oral, dose 1 mg/kg, time 4 day
[42] = Cmax in blood of OFA rat model of T-cell dependent B cell response at 1 mg/kg, po QD for 4 days starting 2 days prior to immunization and measured after 24 hrs; format: ADME, organism-based; parameters: route oral, dose 1 mg/kg, time 5 day
[43] = Cmax in blood of OFA rat model of T-cell dependent B cell response at 3 mg/kg, po QD for 4 days starting 2 days prior to immunization and measured after 3 hrs; format: ADME, organism-based; parameters: route oral, dose 3 mg/kg, time 4 day
[44] = Cmax in blood of OFA rat model of T-cell dependent B cell response at 3 mg/kg, po QD for 4 days starting 2 days prior to immunization and measured after 24 hrs; format: ADME, organism-based; parameters: route oral, dose 3 mg/kg, time 5 day
[45] = system: TMD8; assay: Inhibition of IL-10 production in tumor of CD79B-mutant containing human TMD8 cells xenografted in SCID-bg mouse at 30 mg/kg, po administered as single dose; format: functional, organism-based
[46] = system: OCI-Ly3; assay: Antitumor activity against human OCILY3 cells xenografted in SCID-bg mouse assessed as inhibition of tumor growth by measuring T/C ratio at 30 mg/kg, po QD for 49 days; format: functional; settings: time 49 day
[47] = system: OCI-Ly3; assay: Antitumor activity against human OCILY3 cells xenografted in SCID-bg mouse assessed as tumor regression level at 30 mg/kg, po BID for 49 days; format: functional; settings: time 49 day
[48] = system: OCI-Ly3; assay: Antitumor activity against human OCILY3 cells xenografted in SCID-bg mouse assessed as inhibition of tumor growth by measuring T/C ratio at 30 mg/kg, po QD for 53 days; format: functional, organism-based; settings: time 53.0 day
[49] = system: OCI-Ly3; assay: Antitumor activity against human OCILY3 cells xenografted in SCID-bg mouse assessed as tumor regression level at 30 mg/kg, po BID for 53 days; format: functional; settings: time 53 day
[50] = Toxicity in SCID-bg mouse xenografted with human OCILY3 cells assessed as effect on body weight at 30 mg/kg, po QD for 49 days; format: organism-based; settings: in vivo, 1176 h, time 49 day
[51] = Toxicity in SCID-bg mouse xenografted with human OCILY3 cells assessed as effect on body weight at 30 mg/kg, po BID for 49 days; format: organism-based; settings: in vivo, 1176 h, time 49 day

Cytochrome P450 2C9, sequence (P11712 whole entry): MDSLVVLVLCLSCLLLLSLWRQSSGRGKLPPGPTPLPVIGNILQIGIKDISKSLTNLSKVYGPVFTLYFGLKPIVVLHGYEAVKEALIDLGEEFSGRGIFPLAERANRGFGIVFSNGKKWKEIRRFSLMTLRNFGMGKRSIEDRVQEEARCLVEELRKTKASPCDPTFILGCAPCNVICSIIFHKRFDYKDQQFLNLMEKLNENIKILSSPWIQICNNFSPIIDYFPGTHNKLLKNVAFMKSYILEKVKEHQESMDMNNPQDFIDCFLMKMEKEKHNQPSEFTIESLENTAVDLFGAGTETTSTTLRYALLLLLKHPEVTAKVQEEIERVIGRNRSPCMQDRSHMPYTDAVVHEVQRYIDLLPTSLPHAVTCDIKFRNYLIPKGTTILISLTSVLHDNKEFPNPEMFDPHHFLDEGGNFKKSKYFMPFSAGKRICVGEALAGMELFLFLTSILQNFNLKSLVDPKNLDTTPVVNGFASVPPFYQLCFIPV
Procathepsin L, sequence (P07711 whole entry): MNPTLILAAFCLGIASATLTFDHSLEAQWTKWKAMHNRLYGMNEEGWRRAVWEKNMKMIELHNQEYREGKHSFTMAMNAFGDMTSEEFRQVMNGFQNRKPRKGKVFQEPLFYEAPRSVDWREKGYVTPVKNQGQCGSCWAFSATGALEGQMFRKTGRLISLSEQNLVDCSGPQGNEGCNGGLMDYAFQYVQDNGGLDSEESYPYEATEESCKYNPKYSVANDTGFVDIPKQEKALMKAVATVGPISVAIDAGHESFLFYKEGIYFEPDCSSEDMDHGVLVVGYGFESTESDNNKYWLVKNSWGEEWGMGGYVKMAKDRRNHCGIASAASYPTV
Cathepsin S, sequence (P25774 whole entry): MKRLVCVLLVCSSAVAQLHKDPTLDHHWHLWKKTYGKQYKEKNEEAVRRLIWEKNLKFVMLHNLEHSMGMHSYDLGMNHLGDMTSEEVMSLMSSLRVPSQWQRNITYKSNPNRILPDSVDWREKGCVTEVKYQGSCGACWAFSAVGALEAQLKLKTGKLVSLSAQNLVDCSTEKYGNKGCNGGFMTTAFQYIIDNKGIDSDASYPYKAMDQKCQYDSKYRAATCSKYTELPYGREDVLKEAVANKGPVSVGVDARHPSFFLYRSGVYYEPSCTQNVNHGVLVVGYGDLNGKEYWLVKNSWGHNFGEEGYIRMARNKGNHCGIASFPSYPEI
Cytochrome P450 2D6, sequence (P10635 whole entry): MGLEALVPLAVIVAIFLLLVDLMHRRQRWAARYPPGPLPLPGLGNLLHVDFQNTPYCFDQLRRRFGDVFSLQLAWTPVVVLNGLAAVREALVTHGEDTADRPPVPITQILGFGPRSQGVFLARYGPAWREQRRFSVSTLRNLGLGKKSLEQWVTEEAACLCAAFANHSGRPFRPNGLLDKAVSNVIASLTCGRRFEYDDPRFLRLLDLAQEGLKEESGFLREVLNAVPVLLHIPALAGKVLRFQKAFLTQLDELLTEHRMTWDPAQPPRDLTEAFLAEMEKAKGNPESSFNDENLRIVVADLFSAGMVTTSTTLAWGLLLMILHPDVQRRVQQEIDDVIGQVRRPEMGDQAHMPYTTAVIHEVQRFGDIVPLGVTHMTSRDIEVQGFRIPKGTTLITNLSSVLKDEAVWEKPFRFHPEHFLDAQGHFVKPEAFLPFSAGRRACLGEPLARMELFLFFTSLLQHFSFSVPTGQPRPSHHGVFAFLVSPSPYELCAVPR
Cytochrome P450 3A4, sequence (P08684 whole entry): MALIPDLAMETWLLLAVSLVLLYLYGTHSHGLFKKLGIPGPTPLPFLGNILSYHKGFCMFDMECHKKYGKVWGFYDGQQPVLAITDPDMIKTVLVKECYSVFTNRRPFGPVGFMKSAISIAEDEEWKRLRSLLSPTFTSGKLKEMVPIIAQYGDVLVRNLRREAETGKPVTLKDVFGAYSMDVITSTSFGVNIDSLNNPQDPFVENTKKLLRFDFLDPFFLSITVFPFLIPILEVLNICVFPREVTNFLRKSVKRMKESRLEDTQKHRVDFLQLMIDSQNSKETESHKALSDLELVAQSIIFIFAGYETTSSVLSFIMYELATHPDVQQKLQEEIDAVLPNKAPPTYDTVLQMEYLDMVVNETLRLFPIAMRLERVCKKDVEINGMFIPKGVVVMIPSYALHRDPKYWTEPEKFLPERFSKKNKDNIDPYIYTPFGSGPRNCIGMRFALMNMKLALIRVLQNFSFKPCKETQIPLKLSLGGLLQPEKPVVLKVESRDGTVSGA
Dipeptidyl peptidase 1, sequence (P53634 25-134 limits assumed): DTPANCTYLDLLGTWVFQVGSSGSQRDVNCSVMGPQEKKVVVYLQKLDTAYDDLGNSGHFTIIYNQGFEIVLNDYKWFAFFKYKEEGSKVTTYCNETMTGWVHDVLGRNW
Dipeptidyl peptidase 1, sequence (P53634 231-394 limits assumed): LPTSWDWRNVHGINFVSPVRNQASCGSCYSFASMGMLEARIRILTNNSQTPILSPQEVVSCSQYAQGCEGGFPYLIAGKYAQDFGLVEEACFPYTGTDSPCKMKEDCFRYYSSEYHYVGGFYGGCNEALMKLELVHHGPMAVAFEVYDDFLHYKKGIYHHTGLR
Dipeptidyl peptidase 1, sequence (P53634 395-463 limits assumed): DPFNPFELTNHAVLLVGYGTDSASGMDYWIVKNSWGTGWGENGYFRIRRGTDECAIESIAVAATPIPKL
Voltage-gated inwardly rectifying potassium channel KCNH2, sequence (Q12809 whole entry): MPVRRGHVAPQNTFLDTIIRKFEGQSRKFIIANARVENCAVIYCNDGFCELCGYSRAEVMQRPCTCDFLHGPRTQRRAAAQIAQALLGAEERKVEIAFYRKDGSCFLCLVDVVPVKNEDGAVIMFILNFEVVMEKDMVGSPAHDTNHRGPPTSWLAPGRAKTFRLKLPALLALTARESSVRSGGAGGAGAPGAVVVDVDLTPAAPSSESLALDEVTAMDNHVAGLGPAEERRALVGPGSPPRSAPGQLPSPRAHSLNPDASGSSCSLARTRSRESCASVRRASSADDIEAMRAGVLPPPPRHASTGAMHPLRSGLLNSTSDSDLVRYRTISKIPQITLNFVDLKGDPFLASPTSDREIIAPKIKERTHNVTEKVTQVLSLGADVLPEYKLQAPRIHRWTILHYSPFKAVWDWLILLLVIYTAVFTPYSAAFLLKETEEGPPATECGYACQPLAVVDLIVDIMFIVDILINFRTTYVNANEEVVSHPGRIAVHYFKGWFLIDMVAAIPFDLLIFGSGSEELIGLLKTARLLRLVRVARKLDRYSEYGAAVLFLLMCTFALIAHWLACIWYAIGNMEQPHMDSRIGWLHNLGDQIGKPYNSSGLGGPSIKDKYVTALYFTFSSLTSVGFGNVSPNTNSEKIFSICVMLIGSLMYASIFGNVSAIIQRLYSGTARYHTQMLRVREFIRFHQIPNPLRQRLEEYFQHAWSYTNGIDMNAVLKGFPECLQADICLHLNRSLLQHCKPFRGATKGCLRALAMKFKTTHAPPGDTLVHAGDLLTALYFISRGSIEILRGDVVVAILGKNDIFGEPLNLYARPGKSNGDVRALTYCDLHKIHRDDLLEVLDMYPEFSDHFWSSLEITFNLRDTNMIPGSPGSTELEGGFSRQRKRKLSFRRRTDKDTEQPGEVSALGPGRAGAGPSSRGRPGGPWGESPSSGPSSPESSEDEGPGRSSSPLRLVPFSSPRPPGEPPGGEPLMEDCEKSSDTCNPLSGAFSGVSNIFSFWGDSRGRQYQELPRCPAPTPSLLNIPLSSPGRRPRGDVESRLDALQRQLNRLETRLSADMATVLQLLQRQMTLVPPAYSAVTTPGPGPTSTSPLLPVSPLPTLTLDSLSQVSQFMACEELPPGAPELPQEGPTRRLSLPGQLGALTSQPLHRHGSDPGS

Compound: CO[C@@H](C)c1c(NC(=O)Nc2cnc(-n3nccn3)c(Cl)c2)cnc2cc(Cl)nn12
- microsomal CLint [1]: < 25 µL/min/mg
- microsomal CLint [2]: < 25 µL/min/mg
- microsomal CLint [3]: < 25 µL/min/mg
- logP [4]: 3.4
- fraction unbound [5]: 0.017
- fraction unbound [6]: 0.03
- Papp A→B [7]: 12.8 ×10⁻⁶ cm/s
- IC50 [8]: > 20 µM
- IC50 [9]: > 20 µM
- IC50 [10]: > 20 µM
- solubility thermodynamic [11]: 4 µg/mL (≈ 8.92 µM)
- bioavailability [12]: 83%
- clearance [13]: 7 mL/min/kg
- clearance [14]: 5 mL/min/kg
- half-life [15]: 8.5 h
- half-life [16]: 3.7 h
- Vd [17]: 4.2 L/kg
- Vd [18]: 1.4 L/kg
- AUC [19]: 13.2 µM·h
- AUC [20]: 20.1 µM·h
- Cmax [21]: 700 nM
- Cmax [22]: 1700 nM
- bioavailability [23]: 79%
- growth inhibition (GI) [24]: Dose-dependent effect
- growth inhibition (GI) [25]: inactive
- IC50 [26]: 0.24 µM
- IC50 [27]: > 10 µM
- IC50 [28]: 0.03 µM
- IC50 [29]: > 100 µM
- IC50 [30]: > 100 µM
- IC50 [31]: > 100 µM
- IC50 [32]: > 100 µM
- IC50 [33]: > 100 µM
- IC50 [34]: > 100 µM
- IC50 [35]: > 30 µM
- inhibition in vivo at 0.3 mg/kg [36]: 58%
- inhibition in vivo at 3 mg/kg [37]: 97%
- ED50 ([38]; po, 96 h, time 4 day): 0.3 mg/kg
- Activity ([38]; time 4.0 day): Dose-dependent effect
- Cmax [39]: 130 nM
- Cmax [40]: 50 nM
- Cmax [41]: 670 nM
- Cmax [42]: 260 nM
- Cmax [43]: 2300 nM
- Cmax [44]: 1000 nM
- inhibition [45]: Active
- T/C [46]: 32%
- Activity [47]: -20%
- Activity [48]: Active
- Activity [49]: -50%
- Activity [50]: Non-Toxic
- Activity [51]: Non-Toxic
